Source: patent US12679878B2, “CRF2 receptor agonists and their use in therapy” (SANOFI, priority 2020, dated 2026)
Like-named read-outs stand apart in the source and are kept apart here. Starred links: 1 amine or outer side, 2 acyl side, 3 side chain; linkers in the order of their positions; H or OH if unused. Non-standard residues stand in square brackets, D forms with d. Residues, ends and D or L forms follow the SMILES beside them. Groups on a side chain read outwards from the residue. *: point of attachment. C18 diacid = O=C(O)CCCCCCCCCCCCCCCCC(=O)*; C16 diacid = O=C(O)CCCCCCCCCCCCCCC(=O)*; γGlu = O=C(O)[C@H](CCC(=O)[*:2])N[*:1]; Palmitoyl = CCCCCCCCCCCCCCCC(=O)*; Aib = CC(C)(N)C(=O)O

Columns and labels:
CRF1R receptor = target: T1, CRF1R receptor (Homo sapiens, UniProt P34998); assay: cAMP activity at anti-target CRF1R, CHO-K1 cell line clone 2 (Example 19.10); type: cell-based; settings: 100% = Sauvagine at 100 nM; CRF1R CHO-K1 clone 2
T1 construct: host or cells: CHO-K1 clone 2
T1 sequence (P34998 24-415): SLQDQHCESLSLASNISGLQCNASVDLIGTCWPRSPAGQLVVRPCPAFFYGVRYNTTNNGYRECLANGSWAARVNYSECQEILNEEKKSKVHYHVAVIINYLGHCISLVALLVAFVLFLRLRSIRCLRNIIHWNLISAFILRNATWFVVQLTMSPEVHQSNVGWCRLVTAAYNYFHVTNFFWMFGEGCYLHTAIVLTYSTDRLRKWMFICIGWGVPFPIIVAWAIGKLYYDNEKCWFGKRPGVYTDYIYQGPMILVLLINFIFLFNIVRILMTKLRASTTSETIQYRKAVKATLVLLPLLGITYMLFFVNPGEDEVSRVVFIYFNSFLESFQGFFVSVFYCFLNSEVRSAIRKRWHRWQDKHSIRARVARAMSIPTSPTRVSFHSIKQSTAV
Procedure: The CRF1R-overexpression CHO-K1 cell line clone 2 was purchased from PerkinElmer.
Cells were grown in a 10 cm dish at 37° C./5% CO2 in medium (F12 (Hams)/10% FBS/400 μg/ml G418) to near confluence. At that stage, cells were harvested, resuspended to 10 million/mL in culture medium without G418 and with 10% DMSO. 1 mL vial aliquots were slowly frozen to -80° C. in isopropanol and then transferred in liquid nitrogen for storage. These vials were used to run the experiment following the procedure reported 10 in the previous paragraph, except for the compound used in the control well to define the 100% activation (Sauvagine at 100 nM)

human CRF2α receptor = target: T2, human CRF2α receptor (Homo sapiens, UniProt Q13324); assay: cAMP agonism at human CRF2 α receptor in TeloHEAC cells (Example 7); type: cell-based; settings: cAMP HTRF, TeloHEAC cells stably expressing human CRF2 α
T2 construct: expressed in transfected cells; host or cells: TeloHEAC
T2 sequence (Q13324 1-411): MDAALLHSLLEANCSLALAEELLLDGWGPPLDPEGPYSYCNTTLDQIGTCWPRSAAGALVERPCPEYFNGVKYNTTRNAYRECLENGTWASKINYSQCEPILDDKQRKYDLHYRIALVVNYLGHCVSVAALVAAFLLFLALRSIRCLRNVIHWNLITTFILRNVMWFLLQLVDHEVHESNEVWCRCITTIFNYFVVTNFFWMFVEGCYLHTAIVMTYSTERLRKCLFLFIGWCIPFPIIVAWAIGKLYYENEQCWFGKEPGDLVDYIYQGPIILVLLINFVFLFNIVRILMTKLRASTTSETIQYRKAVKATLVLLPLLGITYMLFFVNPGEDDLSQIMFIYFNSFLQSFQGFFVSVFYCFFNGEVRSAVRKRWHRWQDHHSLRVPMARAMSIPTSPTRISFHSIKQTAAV
Procedure, shortened: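 Percent activation was referenced to 1000 nM UCN2 (100%), and EC50 values taken as concentrations giving half of maximal response. The read-out was a homogeneous time-resolved fluorescence cAMP kit, fluorescence ratio 665/620 nm. Thawed cells (2000/well) saw compound for 30 min at RT in buffer with 2 mM IBMX and 0%/0.1% HSA.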

[1] = 0% HSA, read-out: EC50 [nM], 0% HSA
[2] = 0.1% HSA, read-out: EC50 [nM], 0.1% HSA

| Structure (SMILES) | Emax (CRF1R receptor) | EC50 (human CRF2α receptor; [1]) | EC50 (human CRF2α receptor; [2]) |
| --- | --- | --- | --- |
| CC[C@H](C)[C@H](N)C(=O)N[C@H](C(=O)N[C@@H](CC(C)C)C(=O)N[C@@H](CO)C(=O)N[C@@H](CC(C)C)C(=O)N[C@@H](CC(=O)O)C(=O)N[C@@H](C(=O)N1CCC[C@H]1C(=O)N[C@H](C(=O)N[C@@H](CCCCN)C(=O)N[C@@H](CC(C)C)C(=O)N[C@@H](CCCCNC(=O)CC[C@H](NC(=O)CCCCCCCCCCCCCCC(=O)O)C(=O)O)C(=O)N[C@@H](CCC(N)=O)C(=O)N[C@@H](CCCCN)C(=O)N[C@@H](CC(C)C)C(=O)N[C@@H](CC(C)C)C(=O)N[C@@H](CCCCN)C(=O)N[C@@H](CCC(N)=O)C(=O)N[C@@H](CCC(=O)O)C(=O)N[C@@H](CCCNC(=N)N)C(=O)N[C@@H](CCC(N)=O)C(=O)N[C@@H](CCCNC(=N)N)C(=O)N[C@@H](CCCCN)C(=O)N[C@@H](CCC(=O)O)C(=O)N[C@@H](CCCNC(=N)N)C(=O)N[C@@H](CCC(=O)O)C(=O)N[C@@H](CCC(N)=O)C(=O)N[C@@H](C)C(=O)N[C@@H](CCC(=O)O)C(=O)N[C@@H](CCCCN)C(=O)N[C@@H](CC(N)=O)C(=O)N[C@H](C(=O)N[C@@H](CCCNC(=N)N)C(=O)N[C@H](C(=O)N[C@@H](CC(C)C)C(=O)N[C@@H](CCC(=O)O)C(=O)N[C@@H](CCCNC(=N)N)C(=O)N[C@H](C(N)=O)C(C)C)[C@@H](C)CC)C(C)C)[C@@H](C)O)C(C)C)C(C)C [SEQ ID NO: 222] (H-IVLSLD[dV]PTKLK([γGlu-C16 diacid])QKLLKQERQRKEREQAEKNVRILERV-NH2; N-terminus assumed) | 6.2% | – | – |
| CCCCCCCCCCCCCCCC(=O)N[C@@H](CCC(=O)NCCCC[C@H](NC(=O)[C@H](CC(C)C)NC(=O)[C@H](CCCCN)NC(=O)[C@@H](NC(=O)[C@@H]1CCCN1C(=O)[C@H](NC(=O)[C@H](CC(=O)O)NC(=O)[C@H](CC(C)C)NC(=O)[C@H](CO)NC(=O)[C@H](CC(C)C)NC(=O)[C@@H](NC(=O)[C@@H](N)[C@@H](C)CC)C(C)C)C(C)C)[C@@H](C)O)C(=O)N[C@@H](CCC(N)=O)C(=O)N[C@@H](CCCCN)C(=O)N[C@@H](CC(C)C)C(=O)N[C@@H](CC(C)C)C(=O)N[C@@H](CCCCN)C(=O)N[C@@H](CCC(N)=O)C(=O)N[C@@H](CCC(=O)O)C(=O)N[C@@H](CCCNC(=N)N)C(=O)N[C@@H](CCC(N)=O)C(=O)N[C@@H](CCCNC(=N)N)C(=O)N[C@@H](CCCCN)C(=O)N[C@@H](CCC(=O)O)C(=O)N[C@@H](CCCNC(=N)N)C(=O)N[C@@H](CCC(=O)O)C(=O)N[C@@H](CCC(N)=O)C(=O)N[C@@H](C)C(=O)N[C@@H](CCC(=O)O)C(=O)N[C@@H](CCCCN)C(=O)N[C@@H](CC(N)=O)C(=O)N[C@@H](CCCCN)C(=O)N[C@@H](CCCNC(=N)N)C(=O)N[C@H](C(=O)N[C@@H](CC(C)C)C(=O)N[C@@H](CCC(=O)O)C(=O)N[C@@H](CCCNC(=N)N)C(=O)N[C@H](C(N)=O)C(C)C)[C@@H](C)CC)C(=O)O [SEQ ID NO: 223] (H-IVLSLD[dV]PTKLK([γGlu-Palmitoyl])QKLLKQERQRKEREQAEKNKRILERV-NH2; N-terminus assumed) | 57.3% | – | – |
| CC[C@H](C)[C@H](N)C(=O)N[C@H](C(=O)N[C@@H](CC(C)C)C(=O)N[C@@H](CO)C(=O)N[C@@H](CC(C)C)C(=O)N[C@@H](CC(=O)O)C(=O)N[C@@H](C(=O)N1CCC[C@H]1C(=O)N[C@H](C(=O)N[C@@H](CCCCN)C(=O)N[C@@H](CC(C)C)C(=O)N[C@@H](CCCCNC(=O)CC[C@H](NC(=O)CCCCCCCCCCCCCCCCC(=O)O)C(=O)O)C(=O)N[C@@H](CCC(N)=O)C(=O)N[C@H](C(=O)N[C@@H](CC(C)C)C(=O)N[C@@H](CC(C)C)C(=O)N[C@@H](CCCCN)C(=O)N[C@@H](CCC(N)=O)C(=O)N[C@@H](CCC(=O)O)C(=O)N[C@@H](CCCNC(=N)N)C(=O)N[C@@H](CCC(N)=O)C(=O)N[C@@H](CCCCN)C(=O)NC(C)(C)C(=O)N[C@@H](CCC(N)=O)C(=O)N[C@@H](CCCNC(=N)N)C(=O)N[C@@H](CCC(=O)O)C(=O)N[C@@H](CCC(N)=O)C(=O)N[C@@H](C)C(=O)N[C@@H](CCC(=O)O)C(=O)N[C@@H](CCCCN)C(=O)N[C@@H](CC(N)=O)C(=O)N[C@@H](CCCCN)C(=O)N[C@@H](CCC(N)=O)C(=O)N[C@H](C(=O)N[C@@H](CC(C)C)C(=O)N[C@@H](C)C(=O)N[C@@H](CCC(N)=O)C(=O)N[C@H](C(N)=O)C(C)C)[C@@H](C)CC)[C@@H](C)CC)[C@@H](C)CC)C(C)C)C(C)C [compound 179] (H-IVLSLD[dV]PIKLK([γGlu-C18 diacid])QILLKQERQK[Aib]QREQAEKNKQILAQV-NH2; N-terminus assumed) | – | 0.03 nM | 1.88 nM |
| CC[C@H](C)[C@H](N)C(=O)N[C@H](C(=O)N[C@@H](CC(C)C)C(=O)N[C@@H](CO)C(=O)N[C@@H](CC(C)C)C(=O)N[C@@H](CC(=O)O)C(=O)N[C@@H](C(=O)N1CCC[C@H]1C(=O)N[C@H](C(=O)N[C@@H](CCCCN)C(=O)N[C@@H](CC(C)C)C(=O)N[C@@H](CCCCNC(=O)CC[C@H](NC(=O)CCCCCCCCCCCCCCCCC(=O)O)C(=O)O)C(=O)N[C@@H](CCC(N)=O)C(=O)N[C@H](C(=O)N[C@@H](CC(C)C)C(=O)N[C@@H](CC(C)C)C(=O)N[C@@H](CCCCN)C(=O)N[C@@H](CCC(N)=O)C(=O)N[C@@H](C)C(=O)N[C@@H](CCCNC(=N)N)C(=O)N[C@@H](CCC(N)=O)C(=O)N[C@@H](CCCCN)C(=O)NC(C)(C)C(=O)N[C@@H](CCC(N)=O)C(=O)N[C@@H](CCCNC(=N)N)C(=O)N[C@@H](C)C(=O)N[C@@H](CCC(N)=O)C(=O)N[C@@H](C)C(=O)N[C@@H](CCC(=O)O)C(=O)N[C@@H](CCCCN)C(=O)N[C@@H](CC(N)=O)C(=O)N[C@@H](CCCCN)C(=O)N[C@@H](CCCNC(=N)N)C(=O)N[C@H](C(=O)N[C@@H](CC(C)C)C(=O)N[C@@H](CCC(=O)O)C(=O)N[C@@H](CCCNC(=N)N)C(=O)N[C@H](C(N)=O)C(C)C)[C@@H](C)CC)[C@@H](C)CC)[C@@H](C)CC)C(C)C)C(C)C [compound 180] (H-IVLSLD[dV]PIKLK([γGlu-C18 diacid])QILLKQARQK[Aib]QRAQAEKNKRILERV-NH2; N-terminus assumed) | – | 0.05 nM | 1.74 nM |
| CC[C@H](C)[C@H](N)C(=O)N[C@H](C(=O)N[C@@H](CC(C)C)C(=O)N[C@@H](CO)C(=O)N[C@@H](CC(C)C)C(=O)N[C@@H](CC(=O)O)C(=O)N[C@@H](C(=O)N1CCC[C@H]1C(=O)N[C@H](C(=O)N[C@@H](CCCCN)C(=O)N[C@@H](CC(C)C)C(=O)N[C@@H](CCCCNC(=O)CC[C@H](NC(=O)CCCCCCCCCCCCCCCCC(=O)O)C(=O)O)C(=O)N[C@@H](CCC(N)=O)C(=O)N[C@H](C(=O)N[C@@H](CC(C)C)C(=O)N[C@@H](CC(C)C)C(=O)N[C@@H](CCCCN)C(=O)N[C@@H](CCC(N)=O)C(=O)N[C@@H](CCC(=O)O)C(=O)N[C@@H](CCCNC(=N)N)C(=O)N[C@@H](CCC(N)=O)C(=O)N[C@@H](CCCCN)C(=O)N[C@@H](CCCCN)C(=O)N[C@@H](CCC(N)=O)C(=O)N[C@@H](CCCNC(=N)N)C(=O)N[C@@H](CCC(N)=O)C(=O)N[C@@H](CCC(N)=O)C(=O)N[C@@H](C)C(=O)N[C@@H](CCC(=O)O)C(=O)N[C@@H](CCCCN)C(=O)N[C@@H](CC(N)=O)C(=O)N[C@@H](CCCCN)C(=O)N[C@@H](CCC(N)=O)C(=O)N[C@H](C(=O)N[C@@H](CC(C)C)C(=O)N[C@@H](C)C(=O)N[C@@H](CCC(N)=O)C(=O)N[C@H](C(N)=O)C(C)C)[C@@H](C)CC)[C@@H](C)CC)[C@@H](C)CC)C(C)C)C(C)C [compound 181] (H-IVLSLD[dV]PIKLK([γGlu-C18 diacid])QILLKQERQKKQRQQAEKNKQILAQV-NH2; N-terminus assumed) | – | 1.18 nM | 15.3 nM |
